Values joined by “and” are separate entries in the source; they are usually repeats but may differ in a detail not shown here. Identical values can stand only once.
Columns and labels:
Assay type in all cases: biochemical
Polθ-pol = target: T1, Polθ-pol (Homo sapiens, UniProt O75417); experiment: MMEJ in vitro assay
T1 construct: purified recombinant human Polθ-pol (comprising amino acid residues 1792–2590); made in house
T1 sequence (O75417 1792-2590): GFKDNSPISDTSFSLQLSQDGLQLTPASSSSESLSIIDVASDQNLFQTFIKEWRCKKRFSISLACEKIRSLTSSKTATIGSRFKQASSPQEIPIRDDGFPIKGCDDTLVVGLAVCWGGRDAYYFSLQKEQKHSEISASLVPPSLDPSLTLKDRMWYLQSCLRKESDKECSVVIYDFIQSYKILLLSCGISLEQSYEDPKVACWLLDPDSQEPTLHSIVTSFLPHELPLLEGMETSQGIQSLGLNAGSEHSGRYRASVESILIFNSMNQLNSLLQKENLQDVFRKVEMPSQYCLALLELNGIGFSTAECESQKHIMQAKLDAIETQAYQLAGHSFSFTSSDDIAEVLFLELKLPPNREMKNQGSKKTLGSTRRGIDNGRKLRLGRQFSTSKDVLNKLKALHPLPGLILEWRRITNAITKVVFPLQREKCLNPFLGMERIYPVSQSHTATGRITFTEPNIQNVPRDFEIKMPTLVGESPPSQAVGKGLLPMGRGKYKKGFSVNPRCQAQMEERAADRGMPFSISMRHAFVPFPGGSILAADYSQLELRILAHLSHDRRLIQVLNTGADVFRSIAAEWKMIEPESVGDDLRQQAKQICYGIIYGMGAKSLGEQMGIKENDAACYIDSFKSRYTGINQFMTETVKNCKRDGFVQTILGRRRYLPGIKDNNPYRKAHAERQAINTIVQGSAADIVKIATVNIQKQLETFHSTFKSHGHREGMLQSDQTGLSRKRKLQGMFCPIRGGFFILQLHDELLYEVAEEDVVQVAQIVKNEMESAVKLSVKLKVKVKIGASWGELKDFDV
Method: For the MMEJ in vitro assay in the presence of RTx-161, 10 nM Polθ-pol was first mixed with DMSO (3% final concentration) or RTx-161 at indicated final concentrations 4–500 nM in reaction buffer (25 mM Tris-HCl pH 7.5, 10 mM MgCl2, 10% glycerol, 0.1 mg/mL BSA, 0,01% IGEPAL CA-630, 1 mM DTT) followed by incubation for 5 min at room temperature. MMEJ reactions were started by the addition of 50 μM dNTP and 25 nM 5’-^32P radiolabeled pssDNA (RP343/^32P-RP344), incubated for 15 min at 37 °C, stopped by the addition of denaturing formamide loading buffer with 50 mM EDTA, resolved in denaturing 20% PAGE and analyzed using Typhoon PhosphorImager (GE Amersham). Quantification was performed using ImageQuant TL software. For the MMEJ in vitro assay in the presence of MC160385, 0.2–10 μM MC160385, 10 nM Polθ-pol, 60 nM 5’-^32P radiolabeled pssDNA and 100 μM dNTPs were used. The reaction was performed as above and stopped by the Proteinase K treatment in 50 mM EDTA and 0.5% SDS. The products were resolved in native 12% PAGE at room temp and analyzed as above.

Polθ-pol:DNA/DNA complex [1] = target: T2, Polθ-pol:DNA/DNA complex (Homo sapiens, UniProt O75417); experiment: KpnI endonuclease protection assay; conditions: for i (%), normalized to 100%, ave(%) / i (%), replicates: 14 nt i; for i+1 (%) normalized to 100%, ave(%) / i+1 (%), replicates: 15 nt i+1
T2 construct: purified recombinant human Polθ-pol (comprising amino acid residues 1792–2590); made in house
T2 sequence (O75417 1792-2590): T1 sequence (O75417 1792-2590)
Method: (§1) EcoRI and KpnI endonucleases assay: 25 nM 5’-^32P radiolabeled primer-template DNA Sc15-EcoRI (5’-^32P LM3-EcoRI/LM4-EcoRI) or Sc19-KpnI (5’-^32P LM11-Kpn/LM12-Kpn) in reaction buffer (25 mM Tris-HCl pH 7.5, 10 mM MgCl2, 10% glycerol, 0.1 mg/mL BSA, 0,01% igepal, 1 mM DTT) were incubated in the presence or in the absence of 50 nM Polθ-pol, 100 μM ddCTP, and 10 μM inhibitors, as indicated, for 5 min at room temperature. Next, 0.08 U/μL EcoRI or KpnI together with 500 nM “trapping” DNA Sc14 (RP559/RP702) were added and incubated for further 0–40 min at 30 °C as indicated. 10 nM PolθΔcen and FL-Polθ and 25 nM Sc15-EcoRI and Sc19-Kpn were probed with 0.04 U/μL EcoRI or KpnI (both from New England Biolabs) using the same conditions. Reactions were stopped by addition of formamide loading buffer with 50 mM EDTA, resolved in denaturing 20% urea PAAG and analyzed using Typhoon PhosphorImager (GE Amersham). Quantification was done in ImageQuant TL software. All quantified experiments were performed in triplicates and plotted as mean with ± s.d using GraphPad Prism 9 software.

Polθ-pol:DNA/DNA complex [2] = target: T2, Polθ-pol:DNA/DNA complex; experiment: EcoRI endonuclease protection assay; conditions: for EcoRI cleavage %, ave / EcoRI cleavage %, replicates #1-#3: Eco+pol+ddC+RTx compound; for i (%) (14 nt), replicates #1-#3 / i (%), normalized to 100%, ave(%) / i+1 (%) (15 nt), replicates #1-#3 / i+1 (%) normalized to 100%, ave(%): pol+ddC+compound;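 on i+1 (%) (15 nt), replicates #1-#3: i+1 is one-nucleotide extended DNA within post-catalytic complexes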
Method: as §1

**Q.** What does the source list for CN(C(=O)Oc1c(N2CCN(CCO)C2=O)cc(C(F)(F)F)cc1C(F)(F)F)c1ccc(F)cc1 [RTx-161]?
**A.** inhibition of Polθ-pol MMEJ activity in vitro (Polθ-pol): concentration dependent inhibition; KpnI cleavage %, ave (Polθ-pol:DNA/DNA complex [1]; Kpn+pol+ddC+RTx161, 2.5min): 0.667%; KpnI cleavage %, replicates (Polθ-pol:DNA/DNA complex [1]; Kpn+pol+ddC+RTx161, 2.5min): 1.0% (2×) and 0.0%; KpnI cleavage %, ave (Polθ-pol:DNA/DNA complex [1]; Kpn+pol+ddC+RTx161, 5min): 0.667%; KpnI cleavage %, replicates (Polθ-pol:DNA/DNA complex [1]; Kpn+pol+ddC+RTx161, 5min): 1.0% (2×) and 0.0%; KpnI cleavage %, ave (Polθ-pol:DNA/DNA complex [1]; Kpn+pol+ddC+RTx161, 10min): 1.7%; KpnI cleavage %, replicates (Polθ-pol:DNA/DNA complex [1]; Kpn+pol+ddC+RTx161, 10min): 2.0% (2×) and 1.0%; trapping of post-catalytic complexes, different sequence context (Polθ-pol:DNA/DNA complex [1]; KpnI): identical trapping; i (%), normalized to 100%, ave(%) (Polθ-pol:DNA/DNA complex [1]; KpnI, pol+ddC+161, 2.5 min): 100.0%; i (%), replicates (Polθ-pol:DNA/DNA complex [1]; KpnI, pol+ddC+161, 2.5 min): 37.5% and 36.0% and 24.6%; i+1 (%) normalized to 100%, ave(%) (Polθ-pol:DNA/DNA complex [1]; KpnI, pol+ddC+161, 2.5 min): 100.0%; i+1 (%), replicates (Polθ-pol:DNA/DNA complex [1]; KpnI, pol+ddC+161, 2.5 min): 53.1% and 51.8% and 59.1%; i (%), normalized to 100%, ave(%) (Polθ-pol:DNA/DNA complex [1]; KpnI, pol+ddC+161, 5 min): 87.7%; i (%), replicates (Polθ-pol:DNA/DNA complex [1]; KpnI, pol+ddC+161, 5 min): 33.9% and 31.6% and 20.7%; i+1 (%) normalized to 100%, ave(%) (Polθ-pol:DNA/DNA complex [1]; KpnI, pol+ddC+161, 5 min): 105.6%; i+1 (%), replicates (Polθ-pol:DNA/DNA complex [1]; KpnI, pol+ddC+161, 5 min): 54.8% and 55.9% and 62.4%; i (%), normalized to 100%, ave(%) (Polθ-pol:DNA/DNA complex [1]; KpnI, pol+ddC+161, 10 min): 67.8%; i (%), replicates (Polθ-pol:DNA/DNA complex [1]; KpnI, pol+ddC+161, 10 min): 26.7% and 24.4% and 15.5%; i+1 (%) normalized to 100%, ave(%) (Polθ-pol:DNA/DNA complex [1]; KpnI, pol+ddC+161, 10 min): 114.7%; i+1 (%), replicates (Polθ-pol:DNA/DNA complex [1]; KpnI, pol+ddC+161, 10 min): 61.3% and 62.1% and 64.7%; time Polθ-pol is trapped on DNA/DNA (EcoRI cleavage suppressed) (Polθ-pol:DNA/DNA complex [2]; 10 μM inhibitor, ddCTP): > 10 min; EcoRI cleavage %, ave (Polθ-pol:DNA/DNA complex [2]; 2.5min): 4.0%; EcoRI cleavage %, replicates #1-#3 (Polθ-pol:DNA/DNA complex [2]; 2.5min): 5.8% and 3.2% and 4.2%; EcoRI cleavage %, ave (Polθ-pol:DNA/DNA complex [2]; 5min): 6.0%; EcoRI cleavage %, replicates #1-#3 (Polθ-pol:DNA/DNA complex [2]; 5min): 8.0% and 4.6% and 4.9%; EcoRI cleavage %, replicates #1-#3 (Polθ-pol:DNA/DNA complex [2]; 10min): 9.0% and 6.1% and 7.3%; i (%) (14 nt), replicates #1-#3 (Polθ-pol:DNA/DNA complex [2]; 2.5min): 25.2% and 24.9% and 24.6%; i (%), normalized to 100%, ave(%) (Polθ-pol:DNA/DNA complex [2]; 2.5min): 100.0%; i+1 (%) (15 nt), replicates #1-#3 (Polθ-pol:DNA/DNA complex [2]; 2.5min): 53.9% and 59.3% and 59.1%; i+1 (%) normalized to 100%, ave(%) (Polθ-pol:DNA/DNA complex [2]; 2.5min): 100.0%; i (%) (14 nt), replicates #1-#3 (Polθ-pol:DNA/DNA complex [2]; 5min): 21.5% and 21.2% and 20.7%; i (%), normalized to 100%, ave(%) (Polθ-pol:DNA/DNA complex [2]; 5min): 85.0%; i+1 (%) (15 nt), replicates #1-#3 (Polθ-pol:DNA/DNA complex [2]; 5min): 55.1% and 61.3% and 62.4%; i+1 (%) normalized to 100%, ave(%) (Polθ-pol:DNA/DNA complex [2]; 5min): 103.8%; i (%) (14 nt), replicates #1-#3 (Polθ-pol:DNA/DNA complex [2]; 10min): 11.4% and 15.0% and 15.5%; i (%), normalized to 100%, ave(%) (Polθ-pol:DNA/DNA complex [2]; 10min): 56.1%; i+1 (%) (15 nt), replicates #1-#3 (Polθ-pol:DNA/DNA complex [2]; 10min): 66.5% and 64.8% and 64.7%; i+1 (%) normalized to 100%, ave(%) (Polθ-pol:DNA/DNA complex [2]; 10min): 113.8%
